Measured values reported in patent US20170050957A1, “4-AMINO-6-(HETEROCYCLIC)PICOLINATES AND 6-AMINO-2-(HETEROCYCLIC)PYRIMIDINE-4-CARBOXYLATES AND THEIR USE AS HERBICIDES” (Dow AgroSciences LLC, priority 2013, published 2017).
Like-named read-outs stand apart in the source and are kept apart here.

Columns and labels:
[1] = tested on: Key Broadleaf Weed and Crop Species; assay: Post-emergent Test II herbicidal activity (Table 15); format: in vivo; conditions: post-emergence, 336 h, 14 d; for pest or weed control at 35 g/ha: 35 g ai/ha; for pest or weed control at 70 g/ha: 70 g ai/ha; for pest or weed control at 140 g/ha: 140 g ai/ha
Procedure, shortened: (§1)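 Plants at first-second true leaf stage, grown 7-21 d in greenhouse (~15 h photoperiod, 23-29 °C day), were track-sprayed at 187 L/ha with compound in acetone/DMSO/water/isopropanol/crop oil/Triton X-155 at a high rate plus 1/2× to 1/16× dilutions. Injury scored visually after 14 d versus untreated plants, 0 (none) to 100% (complete kill).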

[2] = tested on: Key Grass and Sedge Weeds as well as Grass Crops; assay: Post-emergent Test II herbicidal activity (Table 16); format: in vivo; conditions: post-emergence, 336 h, 14 d; for pest or weed control at 35 g/ha: 35 g ai/ha; for pest or weed control at 70 g/ha: 70 g ai/ha; for pest or weed control at 140 g/ha: 140 g ai/ha
Procedure, shortened: as §1

[3] = Abutilon theophrasti, velvetleaf (Abutilon theophrasti), read-out: Visual Growth Reduction (%) 14 Days After Application, ABUTH
[4] = Amaranthus retroflexus, redroot pigweed (Amaranthus retroflexus), read-out: Visual Growth Reduction (%) 14 Days After Application, AMARE
[5] = Brassica napus, oilseed rape, canola (Brassica napus), read-out: Visual Growth Reduction (%) 14 Days After Application, BRSNN
[6] = Chenopodium album, lambsquarters (Chenopodium album), read-out: Visual Growth Reduction (%) 14 Days After Application, CHEAL
[7] = Euphorbia heterophylla, wild poinsettia (Euphorbia heterophylla), read-out: Visual Growth Reduction (%) 14 Days After Application, EPHHL
[8] = Helianthus annuus, sunflower (Helianthus annuus), read-out: Visual Growth Reduction (%) 14 Days After Application, HELAN
[9] = Cyperus esculentus, yellow nutsedge (Cyperus esculentus), read-out: Visual Growth Reduction (%) 14 Days After Application, CYPES
[10] = Echinochloa crus-galli, barnyardgrass (Echinochloa crus-galli), read-out: Visual Growth Reduction (%) 14 Days After Application, ECHCG
[11] = Oryza sativa, rice (Oryza sativa), read-out: Visual Growth Reduction (%) 14 Days After Application, ORYSA
[12] = Setaria faberi, giant foxtail (Setaria faberi), read-out: Visual Growth Reduction (%) 14 Days After Application, SETFA
[13] = Triticum aestivum, wheat, spring (Triticum aestivum), read-out: Visual Growth Reduction (%) 14 Days After Application, TRZAS
[14] = Zea mays, maize, corn (Zea mays), read-out: Visual Growth Reduction (%) 14 Days After Application, ZEAMX

Nc1c(F)c(-c2cc3[nH]ccc3cc2F)nc(C(=O)O)c1Cl [Compound 1.14]
45 to 59%: pest or weed control at 35 g/ha [1, 5]
60 to 74%: pest or weed control at 70 g/ha [1, 5] | pest or weed control at 35 g/ha [1, 6] | pest or weed control at 70 g/ha [1, 6] | pest or weed control at 140 g/ha [1, 7] | pest or weed control at 35 g/ha [1, 8]
0 to 29%: pest or weed control at 35 g/ha [1, 3] | pest or weed control at 70 g/ha [1, 3] | pest or weed control at 140 g/ha [1, 3] | pest or weed control at 35 g/ha [1, 7] | pest or weed control at 70 g/ha [1, 7] | pest or weed control at 35 g/ha [2, 9] | pest or weed control at 70 g/ha [2, 9] | pest or weed control at 140 g/ha [2, 9] | pest or weed control at 35 g/ha [2, 10] | pest or weed control at 70 g/ha [2, 10] | pest or weed control at 140 g/ha [2, 10] | pest or weed control at 35 g/ha [2, 11] | pest or weed control at 70 g/ha [2, 11] | pest or weed control at 140 g/ha [2, 11] | pest or weed control at 35 g/ha [2, 12] | pest or weed control at 70 g/ha [2, 12] | pest or weed control at 140 g/ha [2, 12] | pest or weed control at 35 g/ha [2, 13] | pest or weed control at 70 g/ha [2, 13] | pest or weed control at 140 g/ha [2, 13] | pest or weed control at 35 g/ha [2, 14] | pest or weed control at 70 g/ha [2, 14] | pest or weed control at 140 g/ha [2, 14]
75 to 84%: pest or weed control at 35 g/ha [1, 4] | pest or weed control at 140 g/ha [1, 5] | pest or weed control at 140 g/ha [1, 6] | pest or weed control at 70 g/ha [1, 8] | pest or weed control at 140 g/ha [1, 8]
85 to 94%: pest or weed control at 70 g/ha [1, 4] | pest or weed control at 140 g/ha [1, 4]

C=Cc1c(C(=O)O)nc(-c2ccc3cc[nH]c3c2F)c(F)c1N [Compound 1.19]
75 to 84%: pest or weed control at 70 g/ha [1, 8] | pest or weed control at 70 g/ha [2, 9] | pest or weed control at 70 g/ha [2, 12] | pest or weed control at 70 g/ha [2, 13] | pest or weed control at 140 g/ha [2, 13]
60 to 74%: pest or weed control at 35 g/ha [1, 8] | pest or weed control at 140 g/ha [2, 11] | pest or weed control at 35 g/ha [2, 12] | pest or weed control at 35 g/ha [2, 13] | pest or weed control at 35 g/ha [2, 14] | pest or weed control at 70 g/ha [2, 14]
95 to 100%: pest or weed control at 35 g/ha [1, 3] | pest or weed control at 70 g/ha [1, 3] | pest or weed control at 140 g/ha [1, 3] | pest or weed control at 35 g/ha [1, 4] | pest or weed control at 70 g/ha [1, 4] | pest or weed control at 140 g/ha [1, 4] | pest or weed control at 35 g/ha [1, 5] | pest or weed control at 70 g/ha [1, 5] | pest or weed control at 140 g/ha [1, 5] | pest or weed control at 35 g/ha [1, 6] | pest or weed control at 70 g/ha [1, 6] | pest or weed control at 140 g/ha [1, 6] | pest or weed control at 35 g/ha [1, 7] | pest or weed control at 70 g/ha [1, 7] | pest or weed control at 140 g/ha [1, 7] | pest or weed control at 140 g/ha [1, 8] | pest or weed control at 140 g/ha [2, 9] | pest or weed control at 140 g/ha [2, 10]
30 to 44%: pest or weed control at 35 g/ha [2, 11]
85 to 94%: pest or weed control at 35 g/ha [2, 9] | pest or weed control at 35 g/ha [2, 10] | pest or weed control at 70 g/ha [2, 10] | pest or weed control at 140 g/ha [2, 12] | pest or weed control at 140 g/ha [2, 14]
45 to 59%: pest or weed control at 70 g/ha [2, 11]
